Measurements as given in PubChem BioAssay (NCI).
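Grown in 96-well plates, cells were treated for 48 hours with each compound at five concentrations. Insufficient inhibition: endpoint recorded as highest concentration tested. GI50 is the concentration that inhibits growth by half. TGI: concentration producing complete growth inhibition.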

What was measured:
Assay in all cases: inhibition of tumour cell growth, NCI panel, 48 h
786-0 renal = test system: 786-0 renal
ACHN renal = test system: ACHN renal
BT-549 breast = test system: BT-549 breast
K-562 leukemia = test system: K-562 leukemia
MCF7 breast = test system: MCF7 breast
MOLT-4 leukemia = test system: MOLT-4 leukemia
NCI-H522 lung = test system: NCI-H522 lung
RXF 393 renal = test system: RXF 393 renal
SK-MEL-2 melanoma = test system: SK-MEL-2 melanoma
SN12C renal = test system: SN12C renal
MDA-N = test system: MDA-N

Row | SMILES | TGI (786-0 renal) [µM] | TGI (ACHN renal) [µM] | TGI (BT-549 breast) [µM] | TGI (K-562 leukemia) [µM] | TGI (MCF7 breast) [µM] | TGI (MOLT-4 leukemia) [µM] | TGI (NCI-H522 lung) [µM] | TGI (RXF 393 renal) [µM] | TGI (SK-MEL-2 melanoma) [µM] | TGI (SN12C renal) [µM] | TGI (MDA-N) [µM] | GI50 (ACHN renal) [µM] | GI50 (BT-549 breast) [µM] | GI50 (K-562 leukemia) [µM] | GI50 (MCF7 breast) [µM] | GI50 (MOLT-4 leukemia) [µM] | GI50 (NCI-H522 lung) [µM] | GI50 (RXF 393 renal) [µM] | GI50 (SK-MEL-2 melanoma) [µM] | GI50 (SN12C renal) [µM]
1 | CCCc1ccc(OCC(=O)N/N=C/c2c(-c3ccccc3)[nH]c3ccccc23)cc1 | 35.7 | > 100 | 34 | 23.1 | 54.3 | 30.4 | 82 | 28.8 | 15.3 | 32.1 | – | – | – | – | – | – | – | – | – | –
2 | CC(O)=NC(Cc1ccc2ccccc2c1)C(O)=NC(Cc1ccc(Cl)cc1)C(O)=NC(Cc1c[nH]c2ccccc12)C(O)=NC(CO)C(O)=NC(Cc1ccc(O)cc1)C(O)=NC(CCCN=C(N)N)C(O)=NC(CC(C)C)C(O)=NC(CCCN=C(N)N)C(=O)N1CCCC1C(O)=NC(C)C(=N)O (centres undefined) | > 100 | > 100 | > 100 | > 100 | > 100 | > 100 | 93 | 92.2 | 90.9 | > 100 | > 100 | – | – | – | – | – | – | – | – | –
3 | CCOC(=O)[C@H]1C[C@]23CN(C(=O)OC(C)(C)C)CC[C@H]2CCC2(SCCCS2)[C@@H]3N1C | > 100 | > 100 | > 100 | > 100 | > 100 | > 100 | > 100 | 99.7 | 63.3 | 44.3 | > 100 | – | – | – | – | – | – | – | – | –
4 | C[n+]1c(-c2ccc(/C=N\NC(=O)c3ccc(C(=O)N/N=C/c4ccc(-c5cn6ccsc6[n+]5C)cc4)cc3)cc2)cn2ccsc21 | 36.8 | 33.3 | 42.7 | > 100 | 47.9 | 54.1 | 60.6 | 53.5 | 75.6 | 43.8 | 78.3 | – | – | – | – | – | – | – | – | –
5 | CS(=O)(=O)OCc1c(O)c2c(c(O)c1COS(C)(=O)=O)C(=O)C=CC2=O | – | > 100 | – | > 100 | – | > 100 | > 100 | – | > 100 | > 100 | – | – | – | – | – | – | – | – | – | –
6 | C=C1C(=O)OC2/C=C(\C)CC(O)/C=C(/CO)CC(OC(=O)/C(C)=C/C)C12 (centres undefined) | – | – | – | 64.4 | 68.2 | 43.8 | 26.4 | 44.5 | 344 | 437 | – | – | – | – | – | – | – | – | – | –
7 | O=C(Nc1ccc(F)cc1)c1cc2ccc(O)cc2oc1=Nc1ccccc1F | > 100 | > 100 | 43.5 | > 100 | > 100 | > 100 | 84 | – | > 100 | > 100 | > 100 | – | – | – | – | – | – | – | – | –
8 | CC[N+](CC)(CC)/C(=N/S(=O)(=O)c1cc(C)c(Cl)cc1S)[N-]S(=O)(=O)c1ccc(Cl)cc1 | > 100 | > 100 | – | > 100 | > 100 | > 100 | > 100 | > 100 | > 100 | – | > 100 | – | – | – | – | – | – | – | – | –
9 | C[C@H](O)C(=O)SC[C@H](NC(=O)CC[C@@H](N)C(=O)O)C(=O)NCC(=O)O | – | > 100 | – | > 100 | – | > 100 | > 100 | > 100 | > 100 | > 100 | – | – | – | – | – | – | – | – | – | –
10 | O=C(CCO)OCCCCCC/C=C\CCCCCC/C=C\CCCCCCCCOC(=O)CCO | 32.5 | 64.3 | 33.1 | 30.4 | 40.3 | 28.6 | 30.1 | 35 | 31 | 31 | 33.2 | – | – | – | – | – | – | – | – | –
11 | CC(C)Cc1cccc(C(C)C)c1NC(=O)CCC(=O)N/N=C1\C(=N/NC(=O)CCC(=O)Nc2c(C(C)C)cccc2C(C)C)C(c2ccc3c(c2)OCO3)Oc2ccccc21 (centres undefined) | – | > 100 | – | > 100 | – | > 100 | > 100 | > 100 | > 100 | > 100 | – | – | – | – | – | – | – | – | – | –
12 | Cc1ccc(S(=O)(=O)NCCSS(=O)(=O)c2ccc(C)cc2)cc1 | – | > 100 | – | > 100 | 41 | > 100 | 38.5 | 99.3 | – | 86.3 | 56.8 | – | – | – | – | – | – | – | – | –
13 | OC1(c2ccc3ccccc3c2)c2ccc3ccccc3c2C2=NCCN21 (centres undefined) | 69.3 | > 100 | > 100 | > 100 | > 100 | > 100 | – | 98.5 | > 100 | > 100 | > 100 | – | – | – | – | – | – | – | – | –
14 | O=c1cc(-c2nc3ccccc3[nH]2)[nH]c2nc(-c3nc4ccccc4[nH]3)cc(-c3ccc(Cl)cc3)c12 | – | 41.6 | > 100 | 68.8 | 36.3 | 96.4 | 26.1 | 35.8 | 30.5 | 46.9 | 59.6 | – | – | – | – | – | – | – | – | –
15 | Cc1onc(-c2c(F)cccc2Cl)c1C(=O)N[C@@H]1C(=O)N2[C@@H]1SC(C)(C)[C@@H]2C(=O)O | > 100 | > 100 | > 100 | > 100 | > 100 | – | > 100 | > 100 | > 100 | > 100 | > 100 | – | – | – | – | – | – | – | – | –
16 | Cc1cc(-c2nc3cc(F)ccc3s2)ccc1NC(=O)C(C)N (centres undefined) | 7.2 | 7.83 | 8.49 | 14.5 | 2.7 | 8.42 | 7.99 | 8.33 | 7.87 | 9.49 | 8.13 | – | – | – | – | – | – | – | – | –
17 | COc1cc(NCc2ccc3n2-c2ccccc2OC3)cc(OC)c1OC | > 100 | > 100 | 67.3 | 27.6 | 40.6 | – | 40.7 | 87.5 | 69.2 | 45.5 | 72.4 | – | – | – | – | – | – | – | – | –
18 | CCCC(=O)OCC(O)CO (centres undefined) | > 5000 | > 5000 | – | > 5000 | – | > 5000 | > 5000 | > 5000 | > 5000 | > 5000 | – | – | – | – | – | – | – | – | – | –
19 | ClCC1(CCl)COC1 | – | > 100 | – | > 100 | > 100 | > 100 | > 100 | > 100 | – | > 100 | > 100 | – | – | – | – | – | – | – | – | –
20 | NC(N)=N/N=C/c1ccc(O)c(C(=O)O)c1 | > 100 | > 100 | > 100 | > 100 | > 100 | > 100 | > 100 | > 100 | > 100 | – | > 100 | – | – | – | – | – | – | – | – | –
21 | O=C(/N=C/c1c(O)c2ccccc2oc1=O)NC1CCCCC1 | – | > 100 | – | – | – | > 100 | – | > 100 | > 100 | > 100 | – | – | – | – | – | – | – | – | – | –
22 | CCOc1ccc2c(c1)NC(=O)C(C1OC(c3ccccc3)=CC1=O)S2 (centres undefined) | 80.5 | > 100 | 65.9 | 68.7 | 30.4 | – | 25.7 | 42.8 | > 100 | 77.9 | 77.4 | – | – | – | – | – | – | – | – | –
23 | COc1ccc(-n2cc(-c3ccc(OC)c(OC)c3)nc2SCc2ccccc2)cc1Cl | – | > 100 | 42.5 | 39.3 | > 100 | > 100 | 98.4 | 82 | 56.3 | > 100 | – | 38.9 | 14.9 | 9.05 | 24 | 21.2 | 13.2 | 16.9 | 16.3 | 38.1
24 | C=CCC1=CC2(OC)C(=O)C(OC)(OC)C1C1C(OC)(OC)C(=O)C(OC)=CC12CC=C (centres undefined) | > 100 | > 100 | > 100 | > 100 | > 100 | > 100 | > 100 | > 100 | > 100 | > 100 | > 100 | – | – | – | – | – | – | – | – | –
25 | NC1=NS(=O)(=O)Nc2nc(-c3cccs3)[nH]c21 | > 100 | > 100 | – | > 100 | – | > 100 | > 100 | > 100 | > 100 | > 100 | – | – | – | – | – | – | – | – | – | –
26 | CCOc1cc(NC(C)=O)ccc1C(=O)NN1C(=O)CSC1c1ccc(O)c(OC)c1 (centres undefined) | > 100 | > 100 | 98.6 | > 100 | > 100 | > 100 | > 100 | > 100 | > 100 | > 100 | > 100 | – | – | – | – | – | – | – | – | –
27 | FC(F)(F)C1=NC(=NNc2nnc(-c3ccccc3)c(-c3ccccc3)n2)N=C(C(F)(F)F)C1 | – | – | – | > 100 | > 100 | > 100 | 53.6 | > 100 | > 100 | > 100 | – | – | – | – | – | – | – | – | – | –
28 | CO[C@]12C[C@H](CNC(=O)c3cc(Br)c(Br)[nH]3)O[C@H]1NC(=O)N2 | > 100 | > 100 | > 100 | > 100 | > 100 | > 100 | > 100 | – | > 100 | > 100 | – | – | – | – | – | – | – | – | – | –
